{"source": "paper PMC10747822", "about": "(Pharmaceutics, 2023)", "key": {"[1]": {"assay": "Pooled human plasma (Li-heparin)", "settings": "room temperature, up to 2 h"}, "[2]": {"assay": "human whole blood (K-EDTA)", "settings": "room temperature, up to 2 h"}}, "data": [{"substance": "Ac-[D-Leu]LLLRVK-amba", "values": [{"measurement": "not cleaved", "setting": "[1]", "result": "no detectable degradation over at least 2 h"}, {"measurement": "not cleaved", "setting": "[2]", "result": "no detectable degradation over at least 2 h"}]}]}
